Measured values as given in PMC7698860, “Discovery and Design of Novel Small Molecule GSK-3 Inhibitors Targeting the Substrate Binding Site” (International Journal of Molecular Sciences, 2020).

How the values were obtained:
[1] = system: Mouse hippocampal primary neurons; assay: β-catenin immunostaining in hippocampal primary neurons; format: cell-based; details: 4-4 5 μM, CHIR99021 10 μM, 4 h
Description: Hippocampi were isolated from C57BL6/J mice (0–1 day old), and tissues were digested with trypsin type XI (Sigma, Rehovot, Israel, Cat # T1005), and DNase type IV (Sigma, cat #D5025). Cells were suspended in a plating medium including MEM supplemented with 10% FBS, transferrin (0.089 mg/m), GlutaMAX (0.75 U/mL) (Sigma, Cat # 35050-038), insulin (16 μM) (Roche, Basel, Switzerland, Cat # 45865100), and SM1 neuronal supplement (STEMCELL, Seattle, WA, USA, Cat # 05711), and plated on glass coverslips coated with Matrigel (Corning, NY, USA, Cat# 356234) in a 24-well plate. […]
Primary neuron cells were treated with 4-4 (5 μM), CHIR99021 (10 μM) (Merck, MA, USA), or, vehicle (DMSO/1%Tween 80) for 4 hr. Cells were fixed with 4% PFA and immunostained with anti-βcatenin and anti-MAP2 (Sypnactic System, Goettingen, Germany, A neuronal marker) antibodies. βcatenin signal was evaluated by Image J software using co-localization finder plugin (https://imagej.nih.gov/ij/plugins/colocalization-finder.html) that calculated the ratio of βcatenin over MAP2 and DAPI in each cell. The average ratio that was determined for control vehicle-treated cells was set to 1 and respective folds of treated cells were calculated accordingly.

GSK-3β [2] = target: T1, GSK-3β (Oryctolagus cuniculus, UniProt A0A5F9DUX8); assay: In vitro GSK-3β kinase assay (ELISA-based, IRS-1 peptide substrate); format: biochemical, rabbit; details: for IC50: GSK-3β inhibition, 10 μM ATP; for IC50 / GSK-3β inhibition (in words): in vitro kinase assay; for GSK-3β inhibition (in words): screening hits; for Effect of Triton ×100 on inhibition of GSK-3β: 20 μM, 0.05% Triton ×100 (colloidal aggregation control)
Description: (§1) An ELISA-based assay was developed in our laboratory to measure GSK-3 activity. In brief, biotin-labelled IRS-1 peptide substrate was bound to streptavidin-coated 96-well microplates. A GSK-3 assay solution (0.1 μg GSK-3β, 20 mM Tris (pH 7.3), 10 mM MgCl2, and 10 μM ATP) was added to each well, together with the candidate compound at indicated concentrations, and the plates were incubated for 15 min at 30 °C. After having been washed (PBS 0.05% tween), the plates were incubated with a specific anti-phospho IRS-1 antibody (Ser^332) (1:2000), followed by HRP-secondary antibody (1:8000). The signal was developed with TMB solution (abcam, Cambridge UK, Cat# ab210902), stopped with H2SO4, and monitored in a plate reader ([…]). Assays were conducted in duplicates in three independent experiments. In the ATP competitive, or, substrate competitive assays, the assays (60 μL) were performed in Eppendorf tubes (to use “unbound” substrate), and 10–20 μL were spotted on the streptavidin-coated plates. Km values were calculated from the non-linear curve fit, and Ki values were calculated by Kapp = Km (1 + [I]/Ki). Bacterially expressed His-tagged rabbit GSK-3β was purified as described, and purified human GSK-3α was purchased from abcam (Cat# ab42597). The selectivity of compound 4-4 against a collection of protein kinases was assayed at the International Center for Kinase Profiling at the MRC unit, University of Dundee, UK.

GSK-3β-F93A mutant = assay: In vitro kinase assay with GSK-3β-F93A mutant; format: biochemical
Excerpt: To further confirm that compounds interact with the GSK-3β substrate binding site, we performed in vitro kinase assays with the GSK-3β-F93A mutant in which Phe 93 was replaced by alanine. […] This, in contrast, to SB216763, an established GSK-3 ATP competitive inhibitor [46] that inhibited both wild-type (WT) and the F93A mutant (Figure 3B).
as §1

GSK-3β [3] = target: T1, GSK-3β; assay: Michaelis Menten ATP competitive and substrate competitive assays; format: biochemical, rabbit; details: Lineweaver-Burk plots; for Mode of inhibition versus substrate: lines intersect at the Y-axis
Description: We next performed Michaelis Menten competitive assays to examine the ability of 4-3 or 4-4 to compete with ATP or with substrates. […] Subsequently, Michaelis Menten substrate competitive assays were performed and data were analyzed by Lineweaver–Burk plots (Figure 6B). […] The calculated ki values were 7.7 ± 3 and 7.0 ± 0.2 for 4-3 and 4-4 respectively. […] While most of our experiments concentrated on GSK-3β, we also tested the inhibition of GSK-3α by compounds 4-1 through 4-5. […] Inhibition of GSK-3β by 4-3 or 4-4 was not affected by the detergent (Figure 6E). As a final caveat, we evaluated the selectivity of our leading compound 4-4.
as §1

[4] = system: Mouse hippocampal primary neurons; assay: Tau (Ser 396) phosphorylation in hippocampal primary neurons (immunoblot); format: cell-based; details: 20 μM, 4 h
Description: Hippocampi were isolated from C57BL6/J mice (0–1 day old), and tissues were digested with trypsin type XI (Sigma, Rehovot, Israel, Cat # T1005), and DNase type IV (Sigma, cat #D5025). Cells were suspended in a plating medium including MEM supplemented with 10% FBS, transferrin (0.089 mg/m), GlutaMAX (0.75 U/mL) (Sigma, Cat # 35050-038), insulin (16 μM) (Roche, Basel, Switzerland, Cat # 45865100), and SM1 neuronal supplement (STEMCELL, Seattle, WA, USA, Cat # 05711), and plated on glass coverslips coated with Matrigel (Corning, NY, USA, Cat# 356234) in a 24-well plate. The day after plating and twice a week thereafter half of the medium was removed and was replaced with by fresh feeding medium (plating medium lacking insulin and containing Ara-C (3 μM)) (Sigma, Cat# C6645).
Equal amounts of proteins (30–50 μg) were subjected to SDS PHAGE gel electrophoresis, transferred to nitrocellulose membranes, and immunoblotted with selected antibodies followed by incubation with HRP-linked anti-rabbit, or, anti-mouse IgG (Cell signaling, MA, USA, and Jackson Immune Research, PA, USA, respectively). ECL developed membranes were imaged in UVITEC Alliance biomolecular imaging, and densitometry analysis of respected bands was analyzed with software provided by the vendor. Representative protein bands were taken from the same gel, and each gel represents three independent experiments. […]

SH-SY5Y cells = assay: Cytoplasmic β-catenin levels in SH-SY5Y cells (immunoblot); format: cell-based, human; details: 4 h
Description: To verify the potential biological activity of our SCI compounds, we tested their ability to inhibit cellular GSK-3. We focused on the SCI compound 4-4 that was the best inhibitor of the five molecules that were tested (4-1–4-5) β-catenin, which is a central Wnt signaling component, and a well-established GSK-3 target. β-catenin phosphorylation by GSK-3 triggers its rapid proteasomal degradation. We, therefore, studied potential alterations in β-catenin levels following treatment with 4-4. Human neuroblastoma SH-SY5Y cells were treated with increasing concentrations of 4-4, and the levels of β-catenin were determined in the cytoplasmic fraction (prepared after cell permeabilization and sup collection), this to avoid possible “masking” of membrane-associated β-catenin. […]
Equal amounts of proteins (30–50 μg) were subjected to SDS PHAGE gel electrophoresis, transferred to nitrocellulose membranes, and immunoblotted with selected antibodies followed by incubation with HRP-linked anti-rabbit, or, anti-mouse IgG (Cell signaling, MA, USA, and Jackson Immune Research, PA, USA, respectively). ECL developed membranes were imaged in UVITEC Alliance biomolecular imaging, and densitometry analysis of respected bands was analyzed with software provided by the vendor. […]

30 protein kinases = assay: Selectivity against a collection of protein kinases (International Center for Kinase Profiling, Dundee); format: biochemical; details: 10 μM
Description: An ELISA-based assay was developed in our laboratory to measure GSK-3 activity. In brief, biotin-labelled IRS-1 peptide substrate was bound to streptavidin-coated 96-well microplates. A GSK-3 assay solution (0.1 μg GSK-3β, 20 mM Tris (pH 7.3), 10 mM MgCl2, and 10 μM ATP) was added to each well, together with the candidate compound at indicated concentrations, and the plates were incubated for 15 min at 30 °C. After having been washed (PBS 0.05% tween), the plates were incubated with a specific anti-phospho IRS-1 antibody (Ser^332) (1:2000), followed by HRP-secondary antibody (1:8000). The signal was developed with TMB solution (abcam, Cambridge UK, Cat# ab210902), stopped with H2SO4, and monitored in a plate reader ([…]). Assays were conducted in duplicates in three independent experiments. In the ATP competitive, or, substrate competitive assays, the assays (60 μL) were performed in Eppendorf tubes (to use “unbound” substrate), and 10–20 μL were spotted on the streptavidin-coated plates. Km values were calculated from the non-linear curve fit, and Ki values were calculated by Kapp = Km (1 + [I]/Ki). Bacterially expressed His-tagged rabbit GSK-3β was purified as described, and purified human GSK-3α was purchased from abcam (Cat# ab42597). […]

T1 sequence (A0A5F9DUX8 entry or part of it): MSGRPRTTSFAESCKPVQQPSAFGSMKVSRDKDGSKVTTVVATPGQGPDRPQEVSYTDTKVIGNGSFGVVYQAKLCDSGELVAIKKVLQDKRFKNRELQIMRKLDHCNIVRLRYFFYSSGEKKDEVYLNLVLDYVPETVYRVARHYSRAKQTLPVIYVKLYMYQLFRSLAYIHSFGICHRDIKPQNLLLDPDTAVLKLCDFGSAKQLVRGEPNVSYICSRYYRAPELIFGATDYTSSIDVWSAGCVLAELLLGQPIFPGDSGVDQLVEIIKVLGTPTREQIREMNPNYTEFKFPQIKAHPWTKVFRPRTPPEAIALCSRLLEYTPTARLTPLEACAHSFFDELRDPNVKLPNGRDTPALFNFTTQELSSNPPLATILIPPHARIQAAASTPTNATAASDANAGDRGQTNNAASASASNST

In the case of `Cc1c[nH]c(-c2cnc(NCCNc3ccc(C#N)cn3)nc2-c2ccc(Cl)cc2Cl)n1` [CHIR9920, reference compound], the “β-catenin levels in soma and dendrites of neurons” value [1] is reported as “significant increase”.
In the case of `Cc1sc2nc3c(SC(C)C(=O)O)cc(C(=O)c4ccccc4O)cn3c(=O)c2c1C` (stereo not shown) [Compound 1-6], the IC50 (GSK-3β [2]) is reported as 200 ± 30 µM.
Work on `O=C(O)CC1S/C(=N/N=C/c2cc(Br)ccc2OCc2ccc(Cl)cc2)NC1=O` (stereo not shown) [Compound 1-7] yielded an IC50 (GSK-3β [2]) of 180 ± 20 µM.
In the case of `O=C(O)CCCNc1cc(N2CCN(c3ccc(F)cc3)CC2)c2noc3c2c1C(=O)c1ccccc1-3` [Compound 2-1], the “GSK-3β inhibition (in words)” value (GSK-3β [2]) is reported as “best GSK-3β inhibitors”.
For `O=C(O)CCCNc1cc(N2CCN(C(=O)c3ccco3)CC2)c2noc3c2c1C(=O)c1ccccc1-3` [Compound 2-2], the IC50 (GSK-3β [2]) was 21 ± 4 µM and the “GSK-3β inhibition (in words)” value (GSK-3β [2]) was “best GSK-3β inhibitors”.
In the case of `O=C(O)CCNc1cc(N2CCN(C(=O)c3ccco3)CC2)c2noc3c2c1C(=O)c1ccccc1-3` [Compound 3-5], the IC50 (GSK-3β [2]) is reported as > 21 µM.
For `O=C(O)CCNc1cc(N2CCN(c3ccc(F)cc3)CC2)c2noc3c2c1C(=O)c1ccccc1-3` [Compound 3-8], the IC50 (GSK-3β [2]) was 8 ± 3 µM.
With `O=C(O)CNc1cc(N2CCC(c3ccccc3)CC2)c2noc3c2c1C(=O)c1ccccc1-3` [Compound 3-9] the IC50 (GSK-3β [2]) was > 21 µM.
With `CCOC(=O)C1CCCN(c2cc(Nc3ccc(C(=O)O)cc3)c3c4c(onc24)-c2ccccc2C3=O)C1` (stereo not shown) [Compound 3-13] the IC50 (GSK-3β [2]) was > 21 µM.
`O=C(O)c1ccc(N2CCN(c3cc(NCCP(=O)(O)O)c4c5c(onc35)-c3ccccc3C4=O)CC2)cc1` [Compound 4-3] was tested, and the “Inhibition of F93A mutant” value (GSK-3β-F93A mutant; 20 μM each) was “did not inhibit”, the “Effect of Triton ×100 on inhibition of GSK-3β” value (GSK-3β [2]) was “not affected” and the IC50 (GSK-3β [2]) was 1 to 4 µM. The “Mode of inhibition versus ATP” value (GSK-3β [3]) was “non-competitive inhibitors for ATP” and the “Mode of inhibition versus substrate” value (GSK-3β [3]) was “substrate competitive inhibitors”.
`O=C1c2ccccc2-c2onc3c(N4CCN(c5ccc(O)cc5)CC4)cc(NCCP(=O)(O)O)c1c23` [Compound 4-4] was tested, and the “Inhibition of F93A mutant” value (GSK-3β-F93A mutant; 20 μM each) was “did not inhibit”, the “Effect of Triton ×100 on inhibition of GSK-3β” value (GSK-3β [2]) was “not affected” and the IC50 (GSK-3β [2]) was 1 to 4 µM. The “Phosphorylation of tau (Ser 396)” value [4] was “reduced”, the “β-catenin levels in soma and dendrites of neurons” value [1] was “significant increase” and the “Cytoplasmic β-catenin at higher doses” value (SH-SY5Y cells; 10 μM) was “reduction”. The “Concentration sufficient to activate β-catenin in the cytoplasm” value (SH-SY5Y cells) was 1 to 5 µM, the “Selectivity over 30 protein kinases” value (30 protein kinases) was “showed specificity toward GSK-3α and GSK-3β” and the “Mode of inhibition versus ATP” value (GSK-3β [3]) was “non-competitive inhibitors for ATP”. The “Mode of inhibition versus substrate” value (GSK-3β [3]) was “substrate competitive inhibitors”.
In the case of `Cn1cc(C2=C(c3ccc(Cl)cc3Cl)C(=O)NC2=O)c2ccccc21` [SB216763, reference compound], the “Inhibition of F93A mutant” value (GSK-3β-F93A mutant; 1 μM) is reported as “inhibited” and the “Inhibition of wild-type (WT) GSK-3β” value (GSK-3β [2]; 1 μM) is reported as “inhibited”.
In the case of “KEAPPSPPQS(p)PF [Compound L803F, reference compound]”, the “Inhibition of F93A mutant” value (GSK-3β-F93A mutant; 20 μM each) is reported as “barely inhibited”.
